Data published in the NIST ThermoML archive (doi:10.1021/je034209e).

Assay: mn = molality of the nth substance listed, in mol/kg
Conditions: 298.15 K, 101.3 kPa, Liquid, Vibrating tube method

NCC(=O)O [2-aminoacetic acid] + O
Conditions | mass density [kg/m3]
m1 = 0.09741 | 1000.14
m1 = 0.2011 | 1003.37
m1 = 0.3016 | 1006.46
m1 = 0.3936 | 1009.25
m1 = 0.4878 | 1012.07
m1 = 0.5916 | 1015.1

CCC(N)C(=O)O (stereo not drawn) [(.+-.)-α-aminobutyric acid] + O
Conditions | mass density [kg/m3]
m1 = 0.03934 | 998.127
m1 = 0.08124 | 999.275
m1 = 0.1445 | 1000.99
m1 = 0.2022 | 1002.54
m1 = 0.2374 | 1003.48
m1 = 0.2864 | 1004.78
m1 = 0.3179 | 1005.6

CC(N)C(=O)O (stereo not drawn) [DL-2-aminopropanoic acid] + O
Conditions | mass density [kg/m3]
m1 = 0.0436 | 998.297
m1 = 0.08036 | 999.343
m1 = 0.1483 | 1001.26
m1 = 0.2059 | 1002.86
m1 = 0.3297 | 1006.26
m1 = 0.3863 | 1007.79
m1 = 0.4436 | 1009.33

CC(C)C[C@H](N)C(=O)O [L-leucine] + O
Conditions | mass density [kg/m3]
m1 = 0.01266 | 997.346
m1 = 0.01738 | 997.458
m1 = 0.02274 | 997.582
m1 = 0.03028 | 997.762
m1 = 0.03943 | 997.975
m1 = 0.04666 | 998.149
m1 = 0.05611 | 998.37

N[C@@H](Cc1ccccc1)C(=O)O [L-phenylalanine] + O
Conditions | mass density [kg/m3]
m1 = 0.01545 | 997.721
m1 = 0.02099 | 997.961
m1 = 0.02977 | 998.343
m1 = 0.03372 | 998.516
m1 = 0.04624 | 999.058
m1 = 0.05305 | 999.349
m1 = 0.05832 | 999.577

CC(=O)[O-].[Na+] [sodium ethanoate] + O
Conditions | mass density [kg/m3]
m1 = 0.5 | 1023.28
m1 = 1 | 1047.56
m1 = 2 | 1086.81
m1 = 4 | 1123.24
m1 = 5.5 | 1139.16
